Test results reported in patent US7173062B2, “Method for the improvement of skin wrinkles using retinyl retinoate” (Enprani Co., Ltd., priority 2001, dated 2007).

Tests used:
RAR β = target: T1, RAR β (Homo sapiens, UniProt P10826); experiment: Activity for RAR β (CAT reporter in HaCaT cells); assay type: cell-based; conditions: 1 μM, CAT ELISA
T1 construct: expressed in transfected cells; host or cells: HaCaT
T1 sequence (P10826 1-455): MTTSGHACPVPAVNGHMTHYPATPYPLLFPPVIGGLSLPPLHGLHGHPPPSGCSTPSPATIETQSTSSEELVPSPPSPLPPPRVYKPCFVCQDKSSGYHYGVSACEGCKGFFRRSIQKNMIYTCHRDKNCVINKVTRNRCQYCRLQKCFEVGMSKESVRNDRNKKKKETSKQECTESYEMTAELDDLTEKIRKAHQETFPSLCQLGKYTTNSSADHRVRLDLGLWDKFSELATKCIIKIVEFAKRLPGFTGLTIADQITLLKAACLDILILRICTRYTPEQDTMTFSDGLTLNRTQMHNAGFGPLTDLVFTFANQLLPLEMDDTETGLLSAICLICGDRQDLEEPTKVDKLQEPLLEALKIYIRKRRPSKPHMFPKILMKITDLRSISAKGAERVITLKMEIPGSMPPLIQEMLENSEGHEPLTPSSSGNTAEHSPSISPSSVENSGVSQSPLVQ
Procedure: (§1) The effect of the retinol derivatives on the activity of RAR and RXR was examined as follows.
(§2) Experimental procedure: Recombinant gene of DR5-tk-CAT or DR1-tk-CAT comprising DR1 or DR5 as a response element of RAR/RXR, […] promoter, and CAT (chloramphenicol acetyl transferase) was suitably combined with a plasmid DNA that expresses RAR α, β, γ and cotransfected to HaCaT cell line, a skin cancer cell line, with Lipofectamin (GibcoBRL). Then, the cells were incubated in DMEM/10% FBS medium for 1 day, retinol derivative was added in a concentration of 1 μM, and the cells were incubated again for 1 day under the condition of 5% CO2 and 37° C. The cells were washed with phosphate-buffered salione (PBS). Proteins were extracted from each cell, the activity of β-galactosidase was assayed, and the amount of protein was measured to determine the transfection efficiency. Further, the degree of transcription for RAR or RXR was analyzed by CAT ELISA (Roche Molecular Biochemicals, Mannheim, Germany).

RXR α, β, γ = experiment: Activity for RXR (CAT reporter in HaCaT cells); assay type: cell-based; conditions: 1 μM, CAT ELISA, Control = 1.0
Procedure: as §1, §2

RAR γ = target: T2, RAR γ (Homo sapiens, UniProt P13631); experiment: Activity for RAR γ (CAT reporter in HaCaT cells); assay type: cell-based; conditions: 1 μM, CAT ELISA
T2 construct: expressed in transfected cells; host or cells: HaCaT
T2 sequence (P13631 1-454): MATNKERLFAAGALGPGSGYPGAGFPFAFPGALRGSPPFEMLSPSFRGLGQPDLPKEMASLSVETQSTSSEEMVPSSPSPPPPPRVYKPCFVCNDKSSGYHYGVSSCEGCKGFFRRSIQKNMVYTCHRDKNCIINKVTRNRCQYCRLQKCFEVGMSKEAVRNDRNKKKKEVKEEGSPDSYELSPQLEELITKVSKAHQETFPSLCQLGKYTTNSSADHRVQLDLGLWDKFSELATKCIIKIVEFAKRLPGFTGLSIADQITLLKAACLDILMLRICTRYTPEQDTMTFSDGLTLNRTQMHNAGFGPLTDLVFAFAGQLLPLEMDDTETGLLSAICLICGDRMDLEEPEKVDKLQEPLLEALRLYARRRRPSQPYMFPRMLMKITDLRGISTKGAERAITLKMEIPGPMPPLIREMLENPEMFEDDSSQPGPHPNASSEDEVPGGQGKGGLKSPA
Procedure: as §1, §2

RAR α = target: T3, RAR α (Homo sapiens, UniProt P10276); experiment: Activity for RAR α (CAT reporter in HaCaT cells); assay type: cell-based; conditions: 1 μM, CAT ELISA
T3 construct: expressed in transfected cells; host or cells: HaCaT
T3 sequence (P10276 1-462): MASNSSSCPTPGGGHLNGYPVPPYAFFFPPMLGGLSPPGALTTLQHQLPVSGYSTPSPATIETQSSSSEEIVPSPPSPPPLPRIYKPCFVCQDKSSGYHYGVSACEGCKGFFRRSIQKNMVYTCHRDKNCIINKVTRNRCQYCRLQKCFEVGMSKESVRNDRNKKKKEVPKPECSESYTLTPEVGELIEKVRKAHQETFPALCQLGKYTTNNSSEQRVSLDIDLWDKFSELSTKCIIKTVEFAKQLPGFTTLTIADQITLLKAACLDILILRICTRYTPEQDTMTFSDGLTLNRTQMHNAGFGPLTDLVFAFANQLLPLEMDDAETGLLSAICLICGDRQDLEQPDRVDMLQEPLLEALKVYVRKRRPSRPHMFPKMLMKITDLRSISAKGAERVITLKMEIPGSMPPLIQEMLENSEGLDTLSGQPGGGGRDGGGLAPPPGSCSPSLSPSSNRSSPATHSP
Procedure: as §1, §2

[1] = tested on: AP-1 (comprising c-Jun protein); experiment: Inhibition of activity of AP-1 protein (Coll-CAT collagenase promoter reporter in HaCaT cells); assay type: cell-based; conditions: for Relative inhibition against the expression of collagenase / effect on / inhibitory activity against c-Jun (AP-1), in words: HaCaT, Coll-CAT; for effect on / inhibitory activity against c-Jun (AP-1), in words: c-Jun / RAR α cotransfection
Procedure: AP-1 (comprising c-Jun protein) is a transcription factor inducing the expression of collagenase that is a major cause of skin wrinkles. […] Therefore, studies thereabout were carried out in a similar manner to Experiment 6 as follows.
Experimental procedure: CAT reporter (Coll-CAT) having the collagenase promoter wherein AP-1 response element (TRE) is contained, was transfected into HaCaT cell line, a skin cancer cell line, using a liposome. Then, the degree of inhibition against the activity of AP-1 by retinol derivatives was measured through CAT ELISA in a similar manner to Experiment 6. Further, the effect of retinol derivatives on the transcriptional activity of c-Jun (a protein that induces transfer of cancer, skin aging and inflammation, and consists of homologous isomers or heterologous isomers), a constitutional element of AP-1, was examined by cotransfecting c-Jun or RAR α expression vector.

[2] = Photostability test (UV-A 356 nm, 1H NMR); assay type: physicochemical; design: key: 4 = No qualitative change in ^1H NMR spectrum; 3 = Minute noise but no qualitative change in ^1H NMR spectrum; 2 = Clear noise and some qualitative change in ^1H NMR spectrum; 1 = Qualitative confirmation is difficult in ^1H NMR spectrum; conditions: room temperature
Procedure: In order to examine photostability of the compound of formula (1) compared with retinol, 10 mg of sample was irradiated by UV-A light (wavelength 356 nm) using a Spectroline (Model CM-10; Fluorescence analysis cabinet; Spectronics Corporation, Westbury, N.Y., USA) at certain intervals of time at room temperature.

skin of normal adults = experiment: Test for skin irritation property (closed patch test); assay type: in vivo, human; conditions: closed patch test 24 hours, 20 adults
Procedure: In order to examine the skin irritation of the compound of formula (1), a patch test for the skin of normal adults was carried out. As the carrier, capryl caprylic triglyceride or the conventional O/W formulation was used, and twenty (20) adults per a group were tested for 24 hours.
The conventional O/W formulation used in the present experiment was prepared according to the following procedure.
Each of the aqueous part of Nos. 1–6 and the oily part of Nos. 7–13 as shown in the following Table 1 was heated to 75–80° C. to be thoroughly dissolved. The oily part was slowly added to the aqueous part and emulsification was performed for 5 minutes at 75–80° C. in a homomixer of 3000rpm. During the emulsification, the mixture was neutralized by the neutralizing agent of No. 14. After the first emulsification, the mixture was cooled, the retinal retaliate and fragrance of Nos. 15–16 were added at 50–55° C., and then the second emulsification was carried out for 3 minutes in a homomixer of 3000rpm. The mixture was cooled again to 27–30° C. to prepare the composition of O/W formulation.
From the experimental results, the irritation indexes were calculated according to the following Equation 1 and the results are represented in the following Table 2. Irritation index={Σ(Test Value×Number of Examinees Corresponding to the Test Value)/(Total Examinees×The Maximum Test Value)×100 Equation 1
Test Value +++: 5, ++: 4, +: 3, +−: 2, −:1
The degree of irritation was determined according to the following standards:
1.9 or less: Minute irritation, 2.0–2.9: Weak irritation, 3.0–3.9: Moderate irritation, 4.0 or more: Strong irritation

[3] = tested on: Normal human fibroblast (Newborn, passage: 6); experiment: Collagen synthesis test (Sircol collagen assay); assay type: cell-based; conditions: 0.000001%, 0.00001%(w/v); human fibroblast
Procedure: The effect for collagen synthesis of the compound of formula (1) was examined by using retinol, retinoic acid, and derivatives thereof as comparison compounds to confirm its utility as inhibitors for skin aging as follows. The results are represented in FIG. 2.
Cell: Normal human fibroblast (Newborn, passage: 6)
Medium: DMEM containing 10% FBS→DMEM free of FBS was used when cells were treated with samples.
Concentration: A range of concentration where the samples exert no toxicity to the cells was selected through a cell toxicity test ? 0.000001%, 0.00001%(w/v)
Procedure: 1×10^5 cells/well were inoculated into a 6-well plate. Cells were cultured to show about 79–80% confluent. Cells were treated with test samples and incubated for 2 days (FBS was not added to the medium when cells were treated with samples). After 2 days, cell medium and cells were separated from each other and respectively stored in a refrigerator. The cell extract was subjected to the protein analysis (BCA Protein Assay Kit, PIERCE 23225) and the medium was subjected to collagen analysis.
After the medium was removed, a small amount of PBS was added. Cells were scraped with a scraper. 1N NaOH (100 μl) and distilled water (400 μl) were added and the resulting mixture was allowed to stand overnight. Then, the protein analysis was carried out.
Collagen analysis: Analysis kit (Sircol Collagen assay kit—a dye that specifically combines with soluble collagen is used)
1.0 ml of Sircol Dye Reagent was introduced into each tube and mixed for 30 minutes. The mixture was centrifuged for 10 minutes at 5,000 g or more and the supernatant was removed. 1.0 ml Sircol Alkali Reagent was added, slowly mixed, and absorbance at 540 nm was measured. The amount of protein was converted into the value of collagen analysis (see: Mechanism of Aging and Development 73, 179–187, 1994).
After the above experiment, the increasing ratio for collagen synthesis of the test group over the control group treated only by DMEM was depicted in FIG. 2.

[4] = Condition of expression: c-Jun + RAR α, untreated = 8.6
[5] = Condition of expression: c-Jun, untreated = 8.6
[6] = Condition of expression: — (no c-Jun or RAR α vector), untreated = 1.0
[7] = Control = 1.0, listed as retinal salicylate
[8] = Control = 1.0, listed as retinal acetyl salicylate

| SMILES | Relative activity against RAR β (RAR β; Control = 1.0) | Relative activity against RXR α, β, γ (RXR α, β, γ) | Relative activity against RAR γ (RAR γ; Control = 1.0) | Relative activity against RAR α (RAR α; Control = 1.0) | Relative inhibition against the expression of collagenase [1, 4] | Relative inhibition against the expression of collagenase [1, 5] | Relative inhibition against the expression of collagenase [1, 6] | effect on / inhibitory activity against c-Jun (AP-1), in words [1] | further results |
| --- | --- | --- | --- | --- | --- | --- | --- | --- | --- |
| CC1=C(/C=C/C(C)=C/C=C/C(C)=C/C(=O)O)C(C)(C)CCC1 [Retinoic acid] | 4.0 | 9.5 | 3.0 | 37.0 | 3.1 | 5.4 | 0.6 | – | inhibition of the expression of collagenase ([1]; cells treated together with RAR α (c-Jun expressed)): about 64% |
| CC1=C(/C=C/C(C)=C/C=C/C(C)=C/COC(=O)c2ccccc2O)C(C)(C)CCC1 [Retinyl salicylate] | 1.1 | 1.0 | 1.0 | 3.2 | 8.8 | 8.7 | 1.0 | no effect | Relative activity against RAR β (RAR β; [7]): no activity; Relative activity against RAR γ (RAR γ; [7]): no activity; Relative activity against RAR α (RAR α; [7]): low activity |
| CC(=O)Oc1ccccc1C(=O)OC/C=C(C)/C=C/C=C(C)/C=C/C1=C(C)CCCC1(C)C [Retinyl acetyl salicylate] | 1.0 | 1.1 | 1.0 | 2.5 | 8.7 | 8.5 | 1.0 | no effect | Relative activity against RAR β (RAR β; [8]): no activity; Relative activity against RAR γ (RAR γ; [8]): no activity; Relative activity against RAR α (RAR α; [8]): low activity |
| CC1=C(/C=C/C(C)=C/C=C/C(C)=C/C(=O)OC(=O)/C=C(C)/C=C/C=C(C)/C=C/C2=C(C)CCCC2(C)C)C(C)(C)CCC1 | – | – | – | – | – | – | – | – | Photostability level ([2]; After 0 hour, 10 mg sample): 4; Photostability level ([2]; After 2 hours): 3; Photostability level ([2]; After 12 hours): 2; Photostability level ([2]; After 24 hours): 2; Photostability level ([2]; After 48 hours): 2 |
| CCCCCCCCCCCCCCCC(=O)OC/C=C(C)/C=C/C=C(C)/C=C/C1=C(C)CCCC1(C)C [Retinyl Palmitate] | – | – | – | – | – | – | – | – | Degree of Irritation (skin of normal adults; 0.138% in C.C.T): Moderate irritation (3.0–3.9: Moderate irritation); Irritation Index (skin of normal adults; 0.138% in C.C.T): 3.8; Degree of Irritation (skin of normal adults; 0.55% in C.C.T): Strong irritation (4.0 or more: Strong irritation); Irritation Index (skin of normal adults; 0.55% in C.C.T): 4.5; effect for collagen synthesis (FIG. 2), comparison in words [3]: much lower effect for collagen synthesis than retinol |
